Measurements: article PMC12371487, “Phenylalkyl Acetophenones and Anacardic Acids from Knema oblongifolia with Synthetic Analogues as Anti-infectives and Antibacterial Agents” (ACS Bio & Med Chem Au, 2025)
Converted amounts (≈) assume the structure as drawn. “And” between values parts separate entries of the source, which are not always exact repeats. Equal entries are not always repeated. Where two headings read alike, the source gives them in different places.

Tests used:
[1] = tested on: Dictyostelium discoideum (Dd) in infection; assay: Dd-Mm infection assay: host amoeba growth (fluorescence); assay type: cell-based; settings: infected Dd, fluorescence AUC over 72 h at 25 °C, 6-concentration curve, top 100 μM, 1:3 steps, IC50 interpolated
Procedure: (§1) Plant extracts, fractions, or isolated compounds were stored at −20 °C and wrapped in aluminum foil if necessary. All manipulations with extracts, fractions, or compounds were performed under a sterile hood. Extracts, fractions, and compounds were resuspended throughout in DMSO to best solubilize extracts with diverse constituents. Extracts, fractions, or compounds were added to the assay plate in a 1:100 dilution. Assay solutions of extracts, fractions, and compounds were prepared in 96-well plates, stored at −20 °C, and thawed before the experiment at room temperature or warmer with or without shaking/vortexing to obtain a clear assay solution. Extracts were tested at 25 μg/mL and purified compounds in a dose–response curve of 6 concentrations with 100 μM being the top concentration and a 1:3 dilution step between each testing concentration. Since fractions were not weighed individually, the injection mass was used to calculate an average mass per fraction and thus a nominal mass concentration. Fractions were tested at a nominal concentration of 10 μg/mL.
(§2) As described in Nitschke et al. and Mottet et al., Dd Ax2(ka) expressing mCherry from the act5 chromosomal locus was infected with Mm M strain expressing the lux operon (luxCDABE) , by spinoculation.
(§3) Briefly, the day before the experiment, Mm was cultivated in 7H9 broth (Becton Dickinson, Difco Middlebrook 7H9) supplemented with 10% OADC (Becton Dickinson) and 0.05% tyloxapol (Sigma-Aldrich) and 50 μg/mL kanamycin at 32 °C overnight with continuous shaking. Additionally, the day before the experiment, 10^7 amoebae were plated in HL5-C in a 10 cm Petri dish (Falcon). On the day of the experiment, a volume of the Mm culture corresponding to a multiplicity of infection of 25 with respect to the number of amoebae in the Petri dish was added to the semiconfluent amoebae monolayer. Subsequently, the Petri dishes were centrifuged twice at 500g, as described in Mottet et al. To remove extracellular bacteria, dishes were rinsed with fresh HL5-C, and the infected cell population was resuspended in HL5-C with 5 U/mL penicillin and 5 μg/mL streptomycin (Gibco) to inhibit the extracellular growth of bacteria during the course of the experiment.
(§4) For testing fractions and purified compounds, 20 μL of infected cell suspension was plated into each well of a 384-well plate (Interchim FP-BA8240) to an effective cell number of 1 × 10^4 cells per well. Fractions or compounds including a vehicle control (0.3% DMSO final concentration) and a positive control (rifabutin, 10 μM final concentration) were added using an electronic multipipette (Sartorius). Subsequently, the well plates were sealed with a gas impermeable membrane (H769.1, Carl Roth), briefly centrifuged, and intracellular bacterial growth was monitored using an Agilent BioTek H1 plate reader and an Agilent BioTek BioStack plate stacker by recording luminescence over 72 h at 25 °C with readings taken every hour. Fluorescence was also recorded to monitor amoeba growth.
(§5) For both assays, growth curves were obtained by measuring the luminescence and fluorescence as a proxy for bacterial growth and host growth, respectively, for 72 h with time-points taken every hour. The “normalized residual growth” was computed by calculating the area under the curve (AUC, trapezoid method) and normalizing it to the vehicle control (0.3% DMSO, set at 1) and a baseline curve (set at 0). The baseline curve was calculated by taking the median of the first measurement of all wells in a plate and extrapolating it over the complete time course. The threshold for hit detection was arbitrarily fixed at a cutoff of normalized residual growth ≤0.5. Normalized values were averaged over technical and biological replicates (all experiments on isolated compounds have at least n = 3 and N = 3, whereas the primary extract screening and microfractions testing had values of n = 1 and N = 3). […]

[2] = tested on: Mycobacterium marinum (Mm) in broth; assay: Mm growth in broth (antibiotic assay, luminescence); assay type: cell-based; settings: 72 h; for IC50: read-out: IC50 on Mm in broth
Procedure: as §1, with “Extracts, fractions, and compounds were resuspended throughout in DMSO to best solubilize extracts with diverse constituents.” left out
For testing bacteria in broth, the preculture was diluted to a bacterial density of 3.75 × 10^5 bacteria per mL in 7H9 medium. Plating bacteria and compounds or fractions was performed analogously to the infection assay described above. Bacteria growth was monitored with the Agilent BioTek H1 plate reader by recording luminescence at 32 °C.
For both assays, growth curves were obtained by measuring the luminescence and fluorescence as a proxy for bacterial growth and host growth, respectively, for 72 h with time-points taken every hour. The “normalized residual growth” was computed by calculating the area under the curve (AUC, trapezoid method) and normalizing it to the vehicle control (0.3% DMSO, set at 1) and a baseline curve (set at 0). The baseline curve was calculated by taking the median of the first measurement of all wells in a plate and extrapolating it over the complete time course. The threshold for hit detection was arbitrarily fixed at a cutoff of normalized residual growth ≤0.5.
This procedure was also applied to screening extracts with slight modifications. The day before the experiment we preplated 10 μL of HL5-C using a dispenser (Thermo Multidrop), subsequently we preplated 2.2 μL of dissolved extracts from 96-well plates into quadrants 1, 2, and 3 of 384-well plates, whereas quadrant 4 was used for positive and vehicle controls. Preplating of extracts was performed using a liquid handler (Agilent Bravo). In total, 24 extract plates were distributed in triplicate into […] 384-well plates, amounting to 24 assay plates. The prepared plates were sealed and stored at 4 °C overnight. On the day of the experiment, nine 10 cm Petri dishes were infected (as described before) and grouped into three pools. The cell suspension was adjusted to 10^6 cells/mL, and 10 μL was plated into the 24 assay plates, resulting in 10^4 cells per well, as used for conventional infection experiments. Plates were sealed and placed in the plate stacker that supplied the plate reader. The same procedure was used to screen the same extracts on Mm in a broth. For both assays, the first time points and a time point after 72 h were recorded. Subsequently, we normalized the end point, first with the median of the full assay plate at the first time point and second with the end point of the vehicle controls in the respective assay plate.
For IC50 estimation, we used a rudimentary approach of interpolating the sample concentration between the two normalized residual growth values, which were closest to a value of 0.5.

[3] = tested on: Staphylococcus aureus (Sa) Newman strain; settings: literature report; reference number not shown in text; cited from earlier work
[4] = tested on: Staphylococcus aureus (Sa) Newman strain; assay: MIC determination in Mueller-Hinton broth (CLSI) on Sa; assay type: cell-based; settings: Mueller-Hinton broth, CLSI; for MIC: Staphylococcus aureus, NEWMAN, read-out: MIC on Sa
Procedure: MICs were determined in Mueller–Hinton (MH) broth according to CLSI guidelines and were repeated at least on three different occasions.
The Newman strain ofS. aureus and the UCBPP-PA14 strain ofP. aeruginosa were used in this study.

[5] = tested on: Mycobacterium marinum (Mm) in infection of Dictyostelium discoideum; assay: Dd-Mm infection assay: intracellular Mm growth (luminescence); assay type: cell-based; settings: for IC50: Mm inside Dd, luminescence AUC over 72 h at 25 °C, 6-concentration curve, top 100 μM, 1:3 steps, IC50 interpolated
Procedure: as §1, §2, §3, §4, §5

[6] = Mm in 7H9 broth, luminescence at 32 °C, IC50 interpolated

Compound | IC50 on Dd in infection [1] | IC50 on Mm in broth [2, 6] | active dose against Sa (already reported) [3] [μg mL^–1] | MIC on Sa [4] | MIC on Sa ([4]; listed as Anacardic acid) [μg·mL^–1] | IC50 [5] [µM] | IC50 ([1]; Dictyostelium discoideum) [µM] | IC50 ([2]; Mycobacterium marinum) [µM] | MIC [4] [µg/mL] | specificity window (IC50 on Dd vs IC50 on intracellular Mm) ([5]; ratio of IC50 against Dd growth to IC50 on intracellular Mm) [fold] | IC50 [1] [µM] | IC50 [2, 6] [µM]
CCCCCCCCCCCCCCCc1cccc(O)c1C(=O)O [anacardic acid] | not active | not active | 25 | 16 mg·L–1 | 16 | 22.2 | – | – | – | – | – | –
O=C(/C=C/c1cccc2ccccc12)c1cc(Cl)c(O)cc1O [Compound 26, (E)-1-(5-Chloro-2,4-dihydroxyphenyl)-3-(naphthalen-1-yl)prop-2-en-1-one] | – | – | – | not active | – | 0.59 | 1.47 | 47.6 | – | – | – | –
O=C(O)c1c(O)cccc1CCCCCCc1ccc2c(c1)OCO2 [Compound 6, Knemolic acid B] | – | Not active | – | – | – | 7.41 | 7.41 | – | 8 (≈ 23.4 µM) | – | – | –
O=C(/C=C/c1c2ccccc2cc2ccccc12)c1cc(Cl)c(O)cc1O [Compound 27, (E)-3-(Anthracen-9-yl)-1-(5-chloro-2,4-dihydroxyphenyl)prop-2-en-1-one] | – | not active | – | 2 mg·L–1 | – | 0.59 | 15.9 | – | 2 (≈ 5.34 µM) | 25 | – | –
O=C(O)c1c(O)cccc1CCCCCCc1ccccc1 [Compound 7, Knemolic acid C] | – | not active | – | – | – | 7.41 | 7.41 | – | 8 (≈ 26.8 µM) | – | – | –
CC(=O)c1c(O)cc(O)cc1CCCCCCc1ccccc1 [Compound 4, Knemolone C] | – | not active | – | 4 μg·mL^–1 | – | 22.2 | 22.2 | – | 4 (≈ 12.8 µM) | – | – | –
3,5-Dichloro-2,4-dihydroxychalcone [Compound 23] | – | – | – | 4 μg·mL^–1 and 4 mg·L–1 | – | 1.76 | – | – | – | – | 1.76 | 47.6
CC(=O)c1c(O)cc(O)c(Cl)c1CCCCCCc1ccccc1 [Compound 28, 1-(3-Chloro-4,6-dihydroxy-2-(6-phenylhexyl)phenyl)ethan-1-one] | – | – | – | – | – | 2.47 | 0.82 | 22.2 | 4 (≈ 11.5 µM) | – | – | –
CCCCCCCCCCCc1cccc(O)c1C(=O)O [Compound 11, Anagigantic acid] | – | Not active | – | – | – | 2.47 | 2.47 | – | 8 (≈ 27.4 µM) | – | – | –
CC(=O)c1cc(Cl)c(O)c(Cl)c1O [Compound 17, 3,5-Dichloro-2,4-dihydroxyacetophenone] | – | not active | – | not active | – | 66.7 | 66.7 | – | – | – | – | –
CC(=O)c1c(O)cc(O)cc1CCCCc1ccc2c(c1)OCO2 [Compound 1, Knemolone A] | – | Not active | – | Not active | – | 22.2 | 22.2 | – | – | – | – | –
CC(=O)c1cc(Br)c(O)cc1O [Compound 19, 5-Bromo-2,4-dihydroxyacetophenone] | – | not active | – | not active | – | 66.7 | 22.2 | – | – | – | – | –
